Assay results: ChEMBL document CHEMBL5579896, “Discovery of 2-Aryl-4-aminoquinazolin-Based LSD1 Inhibitors to Activate Immune Response in Gastric Cancer” (J Med Chem, 2024)
Active and inactive are the calls of the source. The rule behind the calls is not given here.

Legend:
[1] = Cmax in ICR mouse at 40 mg/kg, po measured upto 24 hrs by LC-MS/MS analysis; assay type: ADME, organism-based; conditions: in vivo
[2] = Toxicity in mouse implanted with MFC assessed as spleen damage at 10 to 40 mg/kg/day, po administered daily for 2 weeks and measured every 2 days by H and E staining based assay; assay type: organism-based; conditions: in vivo, 336 h, dose 10-40 mg/kg/day
BGC-823 [3] = experiment: Anticancer activity against LSD-1 knockout human BGC-823 cells cocultured with human monocytes assessed as increase in CD3/CD28 activated T-cell killing response at 2 to 8 uM incubated for 5 days by microscopic analysis; assay type: functional, cell-based; conditions: dose 2-8 µM, time 5.0 day
MFC [4] = experiment: Downregulation of PD-L1 expression in MFC cells at 2 to 8 uM by Western blotting analysis; assay type: functional, cell-based; conditions: Mus musculus, dose 2-8 µM, TDE = time-dependent effect
MFC [5] = experiment: Antitumor activity against MFC cells implanted in mouse assessed as increase in infiltration of CD8+ cells at 10 to 40 mg/kg/day, po administered daily for 2 weeks and measured every 2 days by immunohistochemistry assay; assay type: functional, organism-based; conditions: dose 10-40 mg/kg/day
[6] = molecular target: T1, MAO-B (Amine oxidase [flavin-containing] B) (Homo sapiens, UniProt P27338); experiment: Inhibition of MAO-B (unknown origin) at 10 uM relative to control
T1 sequence (P27338 whole entry): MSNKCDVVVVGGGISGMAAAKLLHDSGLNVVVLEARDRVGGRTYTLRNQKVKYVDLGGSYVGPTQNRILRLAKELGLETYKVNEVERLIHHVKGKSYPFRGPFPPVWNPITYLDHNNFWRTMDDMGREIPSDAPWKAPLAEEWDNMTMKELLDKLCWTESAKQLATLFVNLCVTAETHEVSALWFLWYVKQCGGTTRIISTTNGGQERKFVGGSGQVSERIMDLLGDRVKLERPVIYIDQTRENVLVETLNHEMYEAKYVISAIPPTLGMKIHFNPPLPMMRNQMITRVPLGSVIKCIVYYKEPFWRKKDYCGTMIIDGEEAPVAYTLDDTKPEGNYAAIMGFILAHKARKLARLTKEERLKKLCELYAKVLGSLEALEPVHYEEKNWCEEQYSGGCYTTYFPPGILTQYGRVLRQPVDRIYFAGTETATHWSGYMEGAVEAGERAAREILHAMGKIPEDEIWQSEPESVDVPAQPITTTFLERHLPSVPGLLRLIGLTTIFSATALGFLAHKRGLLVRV

[7] = AUC in ICR mouse at 40 mg/kg, po measured upto 24 hrs by LC-MS/MS analysis; assay type: ADME, organism-based; conditions: in vivo
[8] = Toxicity in mouse implanted with MFC assessed as lung damage at 10 to 40 mg/kg/day, po administered daily for 2 weeks and measured every 2 days by H and E staining based assay; assay type: organism-based; conditions: in vivo, 336 h, dose 10-40 mg/kg/day
[9] = molecular target: T2, Histone-lysine N-methyltransferase EHMT2 (Homo sapiens) (UniProt Q96KQ7); experiment: Inhibition of G9a (unknown origin)
T2 sequence (whole entry): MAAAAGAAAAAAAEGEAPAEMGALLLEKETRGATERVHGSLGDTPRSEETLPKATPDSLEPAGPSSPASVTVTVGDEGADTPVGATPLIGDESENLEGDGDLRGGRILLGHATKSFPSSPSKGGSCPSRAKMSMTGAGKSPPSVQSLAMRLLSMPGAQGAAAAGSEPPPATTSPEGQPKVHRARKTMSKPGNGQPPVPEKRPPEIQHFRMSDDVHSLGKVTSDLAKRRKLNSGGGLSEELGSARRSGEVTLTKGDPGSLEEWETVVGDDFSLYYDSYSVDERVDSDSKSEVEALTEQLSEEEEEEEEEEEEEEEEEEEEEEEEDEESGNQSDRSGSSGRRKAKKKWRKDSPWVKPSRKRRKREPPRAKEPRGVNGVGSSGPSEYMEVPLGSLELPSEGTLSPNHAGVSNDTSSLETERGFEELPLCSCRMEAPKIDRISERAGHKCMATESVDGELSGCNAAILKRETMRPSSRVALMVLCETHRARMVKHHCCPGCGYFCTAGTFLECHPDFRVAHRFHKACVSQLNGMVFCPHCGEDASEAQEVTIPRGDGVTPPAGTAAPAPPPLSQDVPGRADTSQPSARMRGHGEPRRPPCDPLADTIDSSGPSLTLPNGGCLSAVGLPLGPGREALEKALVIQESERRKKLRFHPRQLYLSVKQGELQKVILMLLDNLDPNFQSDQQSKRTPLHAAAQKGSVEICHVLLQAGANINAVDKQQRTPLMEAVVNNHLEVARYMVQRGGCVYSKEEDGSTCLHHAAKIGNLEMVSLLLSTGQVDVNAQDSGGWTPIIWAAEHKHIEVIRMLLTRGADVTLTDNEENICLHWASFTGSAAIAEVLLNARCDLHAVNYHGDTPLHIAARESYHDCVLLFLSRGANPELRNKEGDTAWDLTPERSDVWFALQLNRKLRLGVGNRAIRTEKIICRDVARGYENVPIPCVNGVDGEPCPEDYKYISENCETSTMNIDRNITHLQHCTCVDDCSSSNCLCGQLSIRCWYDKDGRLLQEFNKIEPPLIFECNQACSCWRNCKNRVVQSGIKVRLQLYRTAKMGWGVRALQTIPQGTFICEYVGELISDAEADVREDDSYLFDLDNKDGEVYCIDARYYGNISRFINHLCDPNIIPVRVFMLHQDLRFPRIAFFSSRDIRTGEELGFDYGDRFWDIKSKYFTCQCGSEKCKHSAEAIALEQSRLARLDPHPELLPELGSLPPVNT

MFC [10] = experiment: Antitumor activity against MFC cells implanted in mouse assessed as reduction in tumor growth at 10 to 40 mg/kg/day, po administered daily for 2 weeks and measured every 2 days; assay type: functional, organism-based; conditions: dose 10-40 mg/kg/day
[11] = Toxicity in mouse implanted with MFC assessed as heart damage at 10 to 40 mg/kg/day, po administered daily for 2 weeks and measured every 2 days by H and E staining based assay; assay type: organism-based; conditions: in vivo, 336 h, dose 10-40 mg/kg/day
BGC-823 [12] = experiment: Cytotoxicity against human BGC-823 cells assessed as reduction in cell viability at 8 uM incubated for 5 days by SRB assay; assay type: toxicity, cell-based; conditions: bgc-823, 120 h, time 5 day
BGC-823 [13] = experiment: Effect on H3K4me3 methylation in LSD1 knockout human BGC-823 cells at 2 to 8 uM by Western blotting analysis; assay type: functional, cell-based; conditions: dose 2-8 µM
MFC [14] = experiment: Antitumor activity against MFC cells implanted in mouse assessed as increase in infiltration of CD4+ cells at 10 to 40 mg/kg/day, po administered daily for 2 weeks and measured every 2 days by immunohistochemistry assay; assay type: functional, organism-based; conditions: dose 10-40 mg/kg/day
[15] = molecular target: Programmed cell death protein 1/Programmed cell death 1 ligand 1 (Homo sapiens) (UniProt Q15116+Q9NZQ7); experiment: Inhibition of PD-1 to PD-L1 protein-protein interaction in human BGC-823 cells incubated for 5 days by DAPI staining based confocal microscopic analysis; assay type: cell-based; conditions: dose 2-8 µM, time 5.0 day
[16] = Toxicity in mouse implanted with MFC assessed as liver damage at 10 to 40 mg/kg/day, po administered daily for 2 weeks and measured every 2 days by H and E staining based assay; assay type: organism-based; conditions: in vivo, 336 h, dose 10-40 mg/kg/day
[17] = Toxicity in mouse implanted with MFC assessed as kidney damage at 10 to 40 mg/kg/day, po administered daily for 2 weeks and measured every 2 days by H and E staining based assay; assay type: organism-based; conditions: in vivo, 336 h, dose 10-40 mg/kg/day
[18] = molecular target: T3, MAO-A (Amine oxidase [flavin-containing] A) (Homo sapiens, UniProt P21397); experiment: Inhibition of MAO-A (unknown origin) at 10 uM relative to control
T3 sequence (P21397 whole entry): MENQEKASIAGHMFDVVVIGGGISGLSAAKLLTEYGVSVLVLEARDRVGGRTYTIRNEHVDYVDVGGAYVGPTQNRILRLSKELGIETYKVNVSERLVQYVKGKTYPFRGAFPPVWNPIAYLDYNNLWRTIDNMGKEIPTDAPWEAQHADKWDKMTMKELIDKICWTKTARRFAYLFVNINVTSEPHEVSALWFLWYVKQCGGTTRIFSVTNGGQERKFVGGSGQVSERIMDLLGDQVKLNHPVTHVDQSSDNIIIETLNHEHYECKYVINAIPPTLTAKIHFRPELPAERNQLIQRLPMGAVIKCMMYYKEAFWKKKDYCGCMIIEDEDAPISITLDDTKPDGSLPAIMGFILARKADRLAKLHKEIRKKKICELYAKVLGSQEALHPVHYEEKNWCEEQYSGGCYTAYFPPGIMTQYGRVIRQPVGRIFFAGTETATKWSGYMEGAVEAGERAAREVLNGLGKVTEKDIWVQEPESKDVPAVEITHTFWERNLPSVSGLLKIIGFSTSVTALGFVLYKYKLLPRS

BGC-823 [19] = experiment: Downregulation of PD-L1 expression in human BGC-823 cells at 2 to 8 uM by Western blotting analysis; assay type: functional, cell-based; conditions: dose 2-8 µM, TDE = time-dependent effect

Cmax [1]: 613 ng/mL | inhibition at 10 µM [6]: < 10% | AUC at 24 h [7]: 2250 ng·h/mL | inhibition [9]: inactive | inhibition at 10 µM [18]: < 10%
Compound: CCN(CC)c1ccc(Nc2nc(-c3ccc(S(C)(=O)=O)cc3)nc3ccccc23)cc1
Activity [2]: Non-Toxic | Activity (BGC-823 [3]): inactive | Activity (MFC [4]): Tde | Activity (MFC [5]): Active | Activity [8]: Non-Toxic | Activity (MFC [10]): Active | Activity [11]: Non-Toxic | Activity (BGC-823 [12]): Non-Toxic | Activity (BGC-823 [13]): inactive | Activity (MFC [14]): Active | inhibition [15]: Dose-Dependent Effect | Activity [16]: Non-Toxic | Activity [17]: Non-Toxic | Activity (BGC-823 [19]): Tde
